# In patent US20090298708A1, “2'-DEOXY-2'-FLUORO-BETA-D-ARABINONUCLEOSIDE 5'-TRIPHOSPHATES AND THEIR USE IN ENZYMATIC NUCLEIC ACID SYNTHESIS” (priority 2006, published 2009):
# “Also recorded” adds a separate entry of the source. Marks after values point to notes of the source that are not given here.
# Key:
# [1] = molecular target: T1, Deep Vent® (3′→5′ exo-) DNA polymerase (DV) (Pyrococcus sp., UniProt Q51334, D141A/DEL493-1029/E143A); test: Primer extension assay with Deep Vent (exo-) DNA polymerase; format: biochemical, Pyrococcus species GB-D; set-up: key to Incorporation of three 2′F-araTTP / 2′F-araCTP (incorporation efficiency) / Enzymatic activity during primer extension reactions: ++++: excellent (no pausing observed); +++: very good (with slight pausing); ++: Good, full-length products with significant pausing; +: significant pausing, no full-length product but at least one 2′F-araN incorporation detected; conditions: for Order of efficiency of incorporation: DNA template PF22 (T/U triphosphates) or PF24 (C triphosphates), three contiguous units; for Incorporation of three 2′F-araTTP / 2′F-araCTP (incorporation efficiency): DNA template PF22 (2′F-araTTP) or PF24 (2′F-araCTP); for Enzymatic activity during primer extension reactions: plus dATP, dGTP
# T1 construct: purchased New England Biolabs; host or cells: E. coli
# Procedure: (§1) Various different types of DNA polymerases were assessed, including the mesophilic enzyme Klenow fragment of DNA pol I (3′→5′ exo-) (“Kf”); the thermophilic DNA polymerases DV, 9N, Taq, Bst pol I, Th and Ph; and the viral reverse transcriptases HIV RT and MMLV. Kf is a genetically engineered proteolytic product of E. coli pol A gene that encodes DNA polymerase I which retains polymerase activity but has a mutation which abolishes the 3′->5′ and 5′->3′ exonuclease activities. DV is a genetically engineered DNA polymerase purified from a strain of E. coli that carries the DV DNA polymerase gene from Pyrococcus species GB-D. The gene has been engineered to eliminate 3′->5′ proofreading exonuclease activity. 9N is a genetically engineered DNA polymerase that has decreased 3′->5′ proofreading exonuclease activity. 9N is purified from a strain of E. coli that carries a modified 9° N DNA polymerase gene from Thermococcus species (strain 9° N-7). […] Taq polymerase is isolated from E. coli engineered to express Taq polymerase from Thermus aquaticus YT-1. Bst DNA polymerase (Large fragment) is a genetically engineered polymerase that consists of the portion of the Bacillus stearothemmophilus DNA polymerase protein responsible for 5′->3′ polymerase activity but lacks the 5′->3′ exonuclease domain. Th DNA polymerase is a genetically engineered, archaeon-derived DNA polymerase that is a variant of the 9N polymerase described above. The recombinant protein is isolated from E. coli engineered to express 9° NA485L (exo-) DNA polymerase gene, a genetic variant of the native DNA polymerase from Thermococcus species 9° N-7. Ph is a recombinant DNA polymerase that consists of a novel Pyrococcus-like enzyme fused with a double-strand DNA-binding and processivity-enhancing domain.
# (§2) Primer extension assays were used to assess the incorporation of 2′F-araNTP on the various DNA templates (Table 1). The DNA primer (PF20) was first radioactively labeled at the 5′-hydroxyl terminus with a radioactive phosphorus probe and the enzyme T4 polynucleotide kinase (T4 PNK) (see Example 1 for General Methods). To assess the incorporation of 2′F-araNTPs, the primer and template were annealed, and the nucleoside 5′-triphosphates added in the presence of enzyme under the conditions specified in Table 2. Time points were obtained by analyzing small aliquots from the reaction mixture through polyacryamide gel electrophoresis (PAGE) and autoradiography.
# (§3) Unless otherwise noticed in the Examples described below, the conditions used in the primer extension assays, such as dNTP concentration, reaction temperatures, concentration of Mg^2+, and reaction buffers (provided by the manufacturers, except for the HIV buffer which was prepared in-house) are shown in Table 2.
# (§4) Primer extension assays were used to assess the incorporation of 2′F-araTTP on the DNA template (PF22). The DNA primer (PF20) was first radioactively labeled at the 5′-hydroxyl terminus with a radioactive phosphorus probe and the enzyme T4 polynucleotide kinase (T4 PNK) according to the manufacturer's specifications (MBI Fermentas Life Sciences, Burlington, ON). Incorporation of the ^32P label was accomplished in reaction mixtures consisting of DNA substrate (200 pmol), 2 μl loxreaction buffer (Buffer A for forward reaction: 500 mM Tris-HCl, pH 7.6 at 25° C., 100 mM MgCl2, 50 mM DTT, 1 mM spermidine and 1 mM EDTA), 1 μl T4 PNK enzyme solution (10 U/1 μl in a solution of 20 mM Tris-HCl, pH 7.5, 25 mM KCl, 0.1 mM EDTA, 2 mM DTT and 50% glycerol), 6 μl [γ-^32P]-ATP solution (6000 Ci/mmol, 10 mCi/ml; Amersham Biosciences, Inc.) and autoclaved sterile water to a final volume of 20 μl. The reaction mixture was incubated for about 45-60 min at 37° C., followed by a second incubation for 10 min at 95° C. to heat denature and deactivate the kinase enzyme.
# [2] = molecular target: T2, 9° Nm™ DNA polymerase (9N) (Thermococcus sp., UniProt Q56366, E143D); test: Primer extension assay with 9°Nm DNA polymerase; format: biochemical, Thermococcus species (strain 9° N-7); set-up: key to Incorporation of three 2′F-araTTP / 2′F-araCTP (incorporation efficiency) / Enzymatic activity during primer extension reactions: ++++: excellent (no pausing observed); +++: very good (with slight pausing); ++: Good, full-length products with significant pausing; +: significant pausing, no full-length product but at least one 2′F-araN incorporation detected; conditions: for Order of efficiency of incorporation: DNA template PF22 (T/U triphosphates) or PF24 (C triphosphates), three contiguous units; for full-length products generated: DNA template PF22, within 2 min, without pausing; for Incorporation of three 2′F-araTTP / 2′F-araCTP (incorporation efficiency): DNA template PF22 (2′F-araTTP) or PF24 (2′F-araCTP); for Enzymatic activity during primer extension reactions: plus dATP, dGTP
# T2 construct: purchased New England Biolabs; host or cells: E. coli
# Procedure: as §1, §2, §3, §4
# DNA polymerases = test: Primer extension assays, statement for all enzymes studied; format: biochemical; conditions: DNA template PF24; 9N, HIV, MMLV, DV
# [3] = Example 3, DNA template PF24, 3x 2′F-araCTP, dTTP, 55° C.
# [4] = Example 2, DNA template PF22, 3x 2′F-araTTP, dCTP, at 37° C.
SMILES,Order of efficiency of incorporation ([1]; 55° C.),Order of efficiency of incorporation ([2]; 55° C.),order of incorporation efficiency (DNA polymerases),full-length products generated ([2]; 55° C.),Incorporation of three 2′F-araTTP / 2′F-araCTP (incorporation efficiency) ([1]; 37° C.),Incorporation of three 2′F-araTTP / 2′F-araCTP (incorporation efficiency) ([2]; 37° C.),other results
Nc1ccn([C@H]2C[C@H](O)[C@@H](COP(=O)(O)OP(=O)(O)OP(=O)(O)O)O2)c(=O)n1 [dCTP],dCTP~2′F-rCTP~2′F-araCTP,dCTP~2′F-araCTP~2′F-rCTP,dCTP=2′F-rCTP>2′F-araCTP >>rCTP,–,–,–,–
"Cc1cn([C@H]2C[C@H](O)[C@@H](COP(=O)(O)OP(=O)(O)OP(=O)(O)O)O2)c(=O)[nH]c1=O [dTTP, reference compound]",dTTP~2′F-araTTP > 2′F-rUTP,dTTP~2′F-araTTP > 2′F-rUTP,–,ca. 100%,–,–,–
"Nc1ccn([C@@H]2O[C@H](COP(=O)(O)OP(=O)(O)OP(=O)(O)O)[C@@H](O)[C@@H]2F)c(=O)n1 [2′F-araCTP, 1-(2-deoxy-2-fluoro-β-D-arabinofuranosyl)cytosine 5′-triphosphate]",dCTP~2′F-rCTP~2′F-araCTP,dCTP~2′F-araCTP~2′F-rCTP,dCTP=2′F-rCTP>2′F-araCTP >>rCTP,–,+++,None,"Incorporation of three 2′F-araTTP / 2′F-araCTP (incorporation efficiency) ([1]; 55° C.): ++++; Enzymatic activity during primer extension reactions [1, 3]: ++++; Incorporation of three 2′F-araTTP / 2′F-araCTP (incorporation efficiency) ([2]; 55° C.): ++++; Enzymatic activity during primer extension reactions [2, 3]: +++"
"Cc1cn([C@@H]2O[C@H](COP(=O)(O)OP(=O)(O)OP(=O)(O)O)[C@@H](O)[C@@H]2F)c(=O)[nH]c1=O [2′F-araTTP, 1-(2-deoxy-2-fluoro-β-D-arabino-furanosyl)thymine 5′-triphosphate]",dTTP~2′F-araTTP > 2′F-rUTP,dTTP~2′F-araTTP > 2′F-rUTP,–,ca. 100%,++++,++++,"yield of full length product ([1]; DNA template PF22, after 5 min, 55° C.): nearly quantitative yield; also recorded: near quantitative yield; Enzymatic activity during primer extension reactions [1, 4]: +++^b; Enzymatic activity during primer extension reactions [2, 4]: +++^b"
"Nc1ccn([C@@H]2O[C@H](COP(=O)(O)OP(=O)(O)OP(=O)(O)O)[C@@H](O)[C@H]2F)c(=O)n1 [2′F-rCTP, 1-(2-deoxy-2-fluoro-β-D-ribofuranosyl) cytosine 5′-triphosphate, reference compound]",dCTP~2′F-rCTP~2′F-araCTP,dCTP~2′F-araCTP~2′F-rCTP,dCTP=2′F-rCTP>2′F-araCTP >>rCTP,–,–,–,–
"O=c1ccn([C@@H]2O[C@H](COP(=O)(O)OP(=O)(O)OP(=O)(O)O)[C@@H](O)[C@H]2F)c(=O)[nH]1 [2′F-rUTP, 1-(2-deoxy-2-fluoro-β-D-ribo-furanosyl)uracil 5′-triphosphate, reference compound]",dTTP~2′F-araTTP > 2′F-rUTP,dTTP~2′F-araTTP > 2′F-rUTP,–,–,–,–,"desired full-length product ([1]; DNA template PF22, after 9.5 h, 55° C.): 20%; expected full-length product ([2]; DNA template PF22, after one hour, 55° C.): ca. 20%"
